Source: US6362172B1, “Water soluble prodrugs of azole compounds” (Bristol-Myers Squibb Company, priority 2000, dated 2002)
In brackets after ≈: the same amount, converted by molar mass.

Tests used:
aqueous solubility = conditions: for solubility: aqueous; for solubility and stability of the crystalline salt: single polymorph crystalline solids
[1] = conversion of prodrug to parent drug in vivo

SMILES	solubility (aqueous solubility; pH 4.3, aqueous buffer) [µg/mL]	solubility (aqueous solubility; pH 7, aqueous buffer) [µg/mL]	stability in solution (stability in solution)	conversion to parent drug in vivo [1]	solubility and stability of the crystalline salt (aqueous solubility)
C[C@@H](c1nc(-c2ccc(C#N)cc2)cs1)C(Cn1cncn1)(OCOP(=O)(O)O)c1ccc(F)cc1F (stereo partly drawn) [Example 2, (2R,3R)-3-[4-(4-cyanophenyl)thiazol-2-yl]-2-(2,4-difluorophenyl)-1-(1H-1,2,4,- triazol-1-yl)-2-[(dihydrogenphosphonoxy)methoxy]butane]	5000 to 6000 (≈ 9.13 to 11 mM)	> 10000	stable in solution	readily converted to parent drug in vivo	
C[C@@H](c1nc(-c2ccc(C#N)cc2)cs1)[C@@](Cn1cncn1)(OCOP(=O)(O)O)c1ccc(F)cc1F.NCCCC[C@H](N)C(=O)O.NCCCC[C@H](N)C(=O)O [Example 3, Bis lysine salt of (2R,3R)-3-[4-(4-cyanophenyl)thiazol-2-yl]-2-(2,4-difluorophenyl)-1-(1H-1,2,4-triazol-1-yl)-2-[(dihydrogenphosphonoxy)methoxy]butane]					good solubility and stability
CC(C)(C)N.C[C@@H](c1nc(-c2ccc(C#N)cc2)cs1)[C@@](Cn1cncn1)(OCOP(=O)(O)O)c1ccc(F)cc1F [Example 4, Tert-butyl amine salt of (2R,3R)-3-[4-(4-cyanophenyl)thiazol-2-yl]-2-(2,4-difluorophenyl)-1-(1H-1,2,4-triazol-1-yl)-2-[(dihydrogenphosphonoxy)methoxy]butane]					good solubility and stability
